Consider one molecule from patent publication US20230035127A1, “CULTURE AND DIFFERENTIATION OF PLURIPOTENT STEM CELLS” (University of Maryland, College Park, priority 2021, published 2023).

The test system of one assay is IMR90-1 human iPSCs. Put plainly: Flow cytometry of IMR90-1 cardiac spheroids. Type of assay: cell-based. As to conditions: day 12.5. As for the experimental part:
For flow cytometry, the eiPSC spheroids were collected on day 0 and the cardiac spheroids were collected on days 1.5, 2.5, 12.5, 15. The spheroids were dissociated to single cells by 0.25% trypsin for 5 min at 37° C. and then fixed with 75% ethanol at 4° C. overnight. The cells were permeabilized with 0.05% Triton X-100 for 3 min and then rinsed with 1×PBS twice. The cell numbers were adjusted to 1×10^6 cells/tube in 700 μL of saline for each marker. These cells were incubated with primary antibodies including OCT-4 (1:500 dilution, Cell Signaling Technologies), NANOG (1:500 dilution, Cell Signaling Technologies), SSEA-4 (1:500 dilution, Cell Signaling Technologies), BRACHYURY (1:500; Santa Cruz Biotechnology), NKX2.5 (1:500; Santa Cruz Biotechnology), cTnT (1:500 dilution, Cell Signaling Technologies), cTnI (1:500 dilution, Cell Signaling Technologies), α-ACTININ (1:500 dilution; Santa Cruz Biotechnology), MUSASHI-1 (1:500; R&D Systems), and TUJ-1 (1:500; R&D Systems) at 4° C. overnight. Subsequently, the samples were rinsed with 1×PBS thrice before incubation with corresponding secondary antibodies: goat anti-mouse IgG FITC and goat anti-rabbit IgG PE, respectively (1:1000; Invitrogen) for 1 h at RT. The samples were then rinsed with 1×PBS thrice before flow cytometry. The negative controls were the cells incubated with respective primary antibodies as aforementioned (no incubation with a secondary antibody).
In general terms: In flow cytometry, cells or beads pass a laser one at a time.

Another assay has as its system human eiPSCs. Nature of the assay: RNA sequencing of eiPSC spheroids and cardiac spheroids. The class given is cell-based. As to conditions: MO vs. MT (1 vs 10 μM RI), day 13.5. The text has this: To investigate the mechanisms for the different outcomes when using different RI concentrations for culturing the eiPSC spheroids in 3D for cardiac differentiation, samples at various stages of the 3D culture and differentiation shown in FIG. 1 were collected and analyzed by RNA-sequencing (RNA-seq). The sample groups and their abbreviations are summarized in Table 1 including undifferentiated eiPSCs on day −2.5 (U), cardiac commitment on day 2.5 (C), cardiac maturation on day 13.5 (M), together with 2D monolayer colonies on day −4 (2D) as a common 2D undifferentiated control for both the 1 (one: […]) and 10 (ten: T) μM RI 3D culture. The raw data of RAN-seq were of high quality with an error rate of no more than 0.03%. […] Afterward, the gene expression level was calculated by the number of mapped reads, also known as fragments per kilobase of transcript per million mapped reads (FPKM). […]
For RNA sequencing (RNA-Seq), total RNA was extracted from the eiPSC clumps from 2D culture on day −4 (termed as 2D) and spheroids collected on day −2.5 after 1.5 days in the 3D culture (termed as UO and UT for 1 μM and 10 μM RI conditions, respectively), day 2.5 (termed as CO and CT), and day 13.5 (termed as MO and MT). […] The RNA concentration in the samples was measured with Nanodrop and the integrity and quality of RNAs in the samples were confirmed with the Nano RNA Bioanalyzer. […]

Assay [1] concerns eiPSC-derived cardiac spheroids. Nature of the assay: Immunostaining of cryosectioned eiPSC-derived cardiac spheroids. Type of assay: cell-based, human. The conditions noted are these: cardiac spheroids day 12.5. The method, then: The iPSC spheroids and the iPSC-derived Cardiac spheroids were fixed in 4% PFA in 1×PBS at 4° C. overnight. The fixed spheroids were incubated sequentially in 10% and 15% sucrose solutions in saline for 4 h, respectively. Afterward, the spheroids were put in a plastic box and embedded in OCT for cryosectioning. Slices of the spheroids of 10 μm thick were obtained by cutting the frozen sample on a Leica cryostat platform and then immediately attached onto the Leica Apex high adhesive glass slides.
For immunostaining, the slides were gently rinsed twice with 1×PBS to remove the OCT and then incubated with 0.1% Tween-20 and 5% normal goat serum in 1×PBS for 1 h at room temperature (RT) to block non-specific bindings. Later, the samples were incubated with primary antibodies at 4° C. overnight. The dilution and product information of the primary antibodies were as follows: OCT-4 (1:500 dilution, Cell Signaling Technologies), NANOG (1:500 dilution, Cell Signaling Technologies), SSEA-4 (1:500 dilution, Cell Signaling Technologies), cTnT (1:500 dilution, Cell Signaling Technologies), CONNEXIN-43 (CX-43, 1:400 dilution, Santa Cruz Biotechnology), DESMIN (1:500 dilution, Santa Cruz Biotechnology), α-ACTININ (1:500 dilution; Santa Cruz Biotechnology), BRACHYURY (1:500; Santa Cruz Biotechnology), NKX2.5 (1:500; Santa Cruz Biotechnology), NESTIN (1:500; R & D Systems), MUSASHI-1 (1:500; R & D Systems), and TUJ-1 (1:500; R & D Systems). Afterward, the samples were rinsed with 1×PBS thrice and then incubated with the associated secondary antibodies (goat anti-rabbit IgG FITC and goat-anti-mouse IgG PE, Invitrogen) in 1×PBS for 1.5 h at RT. Lastly, the samples were rinsed with 1 ml of 1×PBS for 3 min and the nuclei were stained with 1 μg/ml DAPI solution for 5 min at RT. The samples were imaged with the Zeiss LSM 710 microscope.

For `C[C@@H](N)[C@H]1CC[C@H](C(=O)Nc2ccncc2)CC1.Cl.Cl` (relative stereo) [RI, (+)-(R)-trans-4-(1-aminoethyl)-N-(4-pyridyl) cyclo-hexanecarboxamide dihydrochloride], in the assay with IMR90-1 human iPSCs (1 μM RI), the “cells positive for MUSASHI” value was “negligible” and the “cells positive for cTnT” value was 91%. In addition, in the assay on IMR90-1 human iPSCs (10 μM RI), the “cells positive for MUSASHI” value is listed as roughly 20% and the “cells positive for cTnT” value was 32%. In addition, in the assay with human eiPSCs, the “top 2 significantly down-regulated differentially expressed gene groups (GO enrichment)” value is “enriched to the forebrain and axon development”; the “top 18 significantly upregulated differentially expressed gene groups (GO enrichment)” value is “enriched to heart development, muscle system process, and the development of Z-disc and I band”. For the same molecule, in assay [1] (1 μM RI), the “cells positive for WNT4 and CD44” value is “not the 1 μM RI group”; the “expression of cTnT and CONNEXIN-43 (CX-43)” value is given as “highly expressed”; the “staining of neural lineage markers TUJ-1 and MUSASHI-1” value is given as “no evident staining”. In addition, in assay [1] (10 μM RI), the “cells positive for WNT4 and CD44” value is listed as “positive”; the “expression of cTnT and CONNEXIN-43 (CX-43)” value is “either weak (for cTnT) or barely visible (for CX-43)”; the “staining of neural lineage markers TUJ-1 and MUSASHI-1” value is “positive”.
